# pEC50: −log10 of the molar value.
# Biological target: T1, human IL-17AA (Homo sapiens, UniProt Q16552)
# T1 construct: host or cells: HEK (human embryonic kidney) cells
# T1 sequence (Q16552 24-155): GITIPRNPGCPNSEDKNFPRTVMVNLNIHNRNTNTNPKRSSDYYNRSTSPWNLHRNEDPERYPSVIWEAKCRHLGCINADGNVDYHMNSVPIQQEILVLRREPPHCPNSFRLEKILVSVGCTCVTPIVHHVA
# Assay: IL-8 release assay in human epithelial keratinocytes adult (HEKa)
# Format: cell-based
# Conditions: HEKa cells, 3 ng/mL HEK-human IL-17AA + 10 ng/mL human TNFalpha; read-out: Rel EC50 IL-8 release assay
# Summary of the method: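 IL-8 release, quantified by HTRF and normalized to controls, reports IL-17 signaling in HEKa cells treated with compound plus final 3 ng/mL IL-17AA (HEK-derived) and 10 ng/mL TNF-alpha for 68-72 h; TNF-alpha-only wells set 100% inhibition. Four-parameter logistic fits (r^2>0.9) give relative IC50 and Emax; PrestoBlue flags cytotoxicity.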
row,pEC50,Compound
1,> 7.00,"Cc1n[nH]c(C)c1-c1ccc(NC(=O)[C@@H](NC(=O)c2ccnn2C(C)C)[C@H]2CCCC(F)(F)C2)cc1 [Example 23, N-[(1S)-1-[(1S)-3,3-difluorocyclohexyl]-2-[4-(3,5-dimethyl-1H-pyrazol-4-yl)anilino]-2-oxo-ethyl]-2-isopropyl-pyrazole-3-carboxamide]"
2,6.00 to 7.00,Cc1n[nH]c(C)c1-c1ccc(NC(=O)[C@H](Cc2ccccc2Cl)NC(=O)c2ccnn2C(C)C)cc1 [Example 24]
3,< 6.00,Cc1n[nH]c(C)c1-c1ccc(NC(=O)[C@H](Cc2ccccc2Cl)NC(=O)c2ccnn2C)cc1 [Example 25]
4,6.00 to 7.00,"Cc1n[nH]c(C)c1-c1ccc(NC(=O)[C@@H](NC(=O)c2ccnn2C2CC2)C2CCCCC2)cc1 [Example 27, N-[(1S)-1-cyclohexyl-2-[4-(3,5-dimethyl-1H-pyrazol-4-yl)anilino]-2-oxo-ethyl]-2-cyclopropyl-pyrazole-3-carboxamide]"
5,6.00 to 7.00,"Cc1n[nH]c(C)c1-c1ccc(NC(=O)[C@@H](NC(=O)c2ccnn2C(F)F)C2CCCCC2)cc1 [Example 28, N-[(1S)-1-cyclohexyl-2-[4-(3,5-dimethyl-1H-pyrazol-4-yl)anilino]-2-oxo-ethyl]-2-(difluoromethyl)pyrazole-3-carboxamide]"
6,6.00 to 7.00,Cc1n[nH]c(C)c1-c1ccc(NC(=O)[C@@H](NC(=O)c2ccnn2CC(F)(F)F)C2CCCCC2)cc1 [Example 29]
7,6.00 to 7.00,"Cc1n[nH]c(C)c1-c1ccc(NC(=O)C(NC(=O)c2ccnn2C)C(C2CC2)C2CC2)cc1 (stereo not shown) [Example 30, N-[1-(dicyclopropylmethyl)-2-[4-(3,5-dimethyl-1 pyrazol-4-yl)anilino]-2-oxo-ethyl]-2-methyl-pyrazole-3-carboxamide]"
8,6.00 to 7.00,"Cc1n[nH]c(C)c1-c1ccc(NC(=O)[C@@H](NC(=O)c2ccnn2C)[C@H]2CCOc3ccccc32)cc1 [Example 34, N-[(1S)-1-[(4S)-chroman-4-yl]-2-[4-(3,5-dimethyl-1H-pyrazol-4-yl)anilino]-2-oxo-ethyl]-2-methyl-pyrazole-3-carboxamide]"
9,> 7.00,CCn1nccc1C(=O)N[C@H](C(=O)Nc1ccc(-c2c(C)n[nH]c2C)cc1)C(C1CCC1)C1CCC1 [Example 36]
10,> 7.00,Cc1n[nH]c(C)c1-c1ccc(NC(=O)[C@@H](NC(=O)c2ccnn2C(C)C)C(C2CCC2)C2CCC2)cc1 [Example 39]
11,> 7.00,"Cc1n[nH]c(C)c1-c1ccc(NC(=O)[C@@H](NC(=O)c2ccnn2C(C)C)[C@H]2CCCC3(CC3)C2)cc1 [Example 41, N-[(1S)-2-[4-(3,5-dimethyl-1H-pyrazol-4-yl)anilino]-2-oxo-1-[(7S)-spiro[2.5]octan-7-yl]ethyl]-2-isopropyl-pyrazole-3-carboxamide]"
12,< 6.00,"Cc1n[nH]c(C)c1-c1ccc(NC(=O)[C@@H](NC(=O)c2ccnn2C)C(C)C)cc1 [Example 42, N-[(1S)-1-[[4-(3,5-dimethyl-1H-pyrazol-4-yl)phenyl]carbamoyl]-2-methyl-propyl]-2-methyl-pyrazole-3-carboxamide; 2,2,2-trifluoroacetic acid]"
13,6.00 to 7.00,"CC[C@H](C)[C@H](NC(=O)c1ccnn1C)C(=O)Nc1ccc(-c2c(C)n[nH]c2C)cc1 [Example 43, N-[(1S,2S)-1-[[4-(3,5-dimethyl-1H-pyrazol-4-yl)phenyl]carbamoyl]-2-methyl-butyl]-2-methyl-pyrazole-3-carboxamide]"
14,< 6.00,"Cc1n[nH]c(C)c1-c1ccc(NC(=O)[C@H](Cc2ccccc2)NC(=O)c2ccnn2C)cc1 [Example 44, N-[(1S)-1-benzyl-2[4-(3,5-dimethyl-1H-pyrazol-4-yl)anilino]-2-oxo-ethyl]-2-methyl-pyrazole-3-carboxamide]"
15,< 6.00,"Cc1n[nH]c(C)c1-c1ccc(NC(=O)[C@H](Cc2ccc(O)cc2)NC(=O)c2ccnn2C)cc1 [Example 45, N-[(1S)-2-[4-(3,5-dimethyl-1H-pyrazol-4-yl)anilino]-1-[(4-hydroxyphenyl)methyl]-2-oxo-ethyl]-2-methyl-pyrazole-3-carboxamide]"
16,6.00 to 7.00,"Cc1n[nH]c(C)c1-c1ccc(NC(=O)[C@@H](NC(=O)c2ccnn2CCO)C2CCCCC2)cc1 [Example 46, N-[(1S)-1-cyclohexyl-2-[4-(3,5-dimethyl-1H-pyrazol-4-yl)anilino]-2-oxo-ethyl]-2-(2-hydroxyethyl)pyrazole-3-carboxamide]"
17,> 7.00,"Cc1n[nH]c(C)c1-c1ccc(NC(=O)[C@@H](NC(=O)c2ccnn2C(C)C)[C@H]2CCOc3ccccc32)cc1 [Example 47, N-[(1S)-1-[(4S)-chroman-4-yl]-2-[4-(3,5-dimethyl-1H-pyrazo1-4-yl)anilino]-2-oxo-ethyl]-2-isopropyl-pyrazole-3-carboxamide]"
18,< 6.00,"Cc1n[nH]c(C)c1-c1ccc(NC(=O)[C@@H](NC(=O)c2cnc(C)n2C)C2CCCCC2)cc1 [Example 48, N-[(1S)-1-cyclohexyl-2-[4-(3,5-dimethyl-1H-pyrazol-4-yl)anilino]-2-oxo-ethyl]-2,3-dimethyl-imidazole-4-carboxamide]"
19,< 6.00,"Cc1n[nH]c(C)c1-c1ccc(NC(=O)[C@@H](NC(=O)c2cncn2C)C2CCCCC2)cc1 [Example 49, N-[(1S)-1-cyclohexyl-2-[4-(3,5-dimethyl-1H-pyrazol-4-yl)anilino]-2-oxo-ethyl]-3-methyl-imidazole-4-carboxamide]"
20,< 6.00,"Cc1n[nH]c(C)c1-c1ccc(NC(=O)[C@@H](NC(=O)c2c(C)ncn2C)C2CCCCC2)cc1 [Example 50, N-[(1S)-1-cyclohexyl-2-[4-(3,5-dimethyl-1H-pyrazol-4-yl)anilino]-2-oxo-ethyl]-3,5-dimethyl-imidazole-4-carboxamide]"
21,< 6.00,"Cc1ncsc1CC(=O)N[C@H](C(=O)Nc1ccc(-c2c(C)n[nH]c2C)cc1)C1CCCCC1 [Example 51, (2S)-2-cyclohexyl-N-[4-(3,5-dimethyl-1H-pyrazol-4-yl)phenyl]-2-[[2-(4-methylthiazol-5-yl)acetyl]amino]acetamide]"
22,< 6.00,"Cc1ncc(CC(=O)N[C@H](C(=O)Nc2ccc(-c3c(C)n[nH]c3C)cc2)C2CCCCC2)s1 [Example 52, (2S)-2-cyclohexyl-N-[4-(3,5-dimethyl-1H-pyrazol-4-yl)phenyl]-2-[[2-(2-methylthiazol-5-yl)acetyl]amino]acetamide]"
23,< 6.00,"Cc1n[nH]c(C)c1-c1ccc(NC(=O)[C@@H](NC(=O)Cn2ccnc2C)C2CCCCC2)cc1 [Example 53, (2S)-2-cyclohexyl-N-[4-(3,5-dimethyl-1H-pyrazol-4-yl)phenyl]-2-[[2-(2-methylimidazol-1-yl)acetyl]amino]acetamide]"
24,6.00 to 7.00,"Cc1n[nH]c(C)c1-c1ccc(NC(=O)[C@@H](NC(=O)Cc2ccc(N(C)C)cc2)C2CCCCC2)cc1 [Example 54, (2S)-2-cyclohexyl-2-[[2-(4-dimethylaminophenyl)acetyl]amino]-N-[4-(3,5-dimethyl-1H-pyrazol-4-yl)phenyl]acetamide]"
25,6.00 to 7.00,"Cc1n[nH]c(C)c1-c1ccc(NC(=O)[C@@H](NC(=O)C(F)(F)c2ccccc2)C2CCCCC2)cc1 [Example 55, N-[(1S)-1-cyclohexyl-2-[4-(3,5-dimethyl-1H-pyrazol-4-yl)anilino]-2-oxo-ethyl]-2,2-difluoro-2-phenyl-acetamide]"
